Assay results from PMC12114297 (Molecules, 2025).
In brackets after ≈: the same amount, converted by molar mass. Read-outs that look alike come from different tables or passages of the source.

Tests used:
[1] = target: T1, BChE from equine serum (eqBuChE) (Equus caballus, UniProt P81908); assay: biochemical; settings: for IC50 / inhibition at 20 µM: average ± standard error (n = 3); for inhibition at 20 µM: read-out: BChE % of Inhibition (Conc. 20 μM), 20 μM; for Selectivity BChE/AChE: ratio of AChE and BChE IC50
T1 construct: BChE from equine serum (BChE, EC 3.1.1.8); purchased Sigma-Aldrich (St. Louis, MO, USA); host or cells: equine serum
T1 sequence (P81908 whole entry): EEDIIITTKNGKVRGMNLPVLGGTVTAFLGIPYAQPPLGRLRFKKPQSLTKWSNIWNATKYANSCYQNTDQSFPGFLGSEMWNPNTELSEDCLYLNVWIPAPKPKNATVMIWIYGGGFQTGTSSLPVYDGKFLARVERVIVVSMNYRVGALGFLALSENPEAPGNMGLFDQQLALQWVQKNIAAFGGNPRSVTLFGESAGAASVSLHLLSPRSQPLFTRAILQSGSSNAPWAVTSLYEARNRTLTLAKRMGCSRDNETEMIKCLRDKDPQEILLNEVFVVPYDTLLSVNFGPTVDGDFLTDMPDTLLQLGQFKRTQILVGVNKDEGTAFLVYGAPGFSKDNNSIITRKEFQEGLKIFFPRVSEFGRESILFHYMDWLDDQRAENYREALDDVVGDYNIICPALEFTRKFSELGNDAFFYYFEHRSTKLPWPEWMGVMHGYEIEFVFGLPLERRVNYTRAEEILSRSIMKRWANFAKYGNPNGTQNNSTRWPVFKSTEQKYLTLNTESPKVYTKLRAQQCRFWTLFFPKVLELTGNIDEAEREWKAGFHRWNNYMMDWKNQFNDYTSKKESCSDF
Protocol: The in vitro cholinesterase inhibitory activity of the synthesized hybrid molecules was evaluated using a modified Ellman’s assay, optimized for 96-well microplate application. AChE from Electrophorus electricus (AChE, EC 3.1.1.7), BChE from equine serum (BChE, EC 3.1.1.8), acetylthiocholine iodide (ATCh), butyrylthiocholine iodide (BTCh), and 5,5′-dithiobis(2-nitrobenzoic acid) were purchased from Sigma-Aldrich (St. Louis, MO, USA) and used without further purification.
Test compounds were initially dissolved in dimethylsulphoxide (DMSO) to yield 1 mM stock solutions and subsequently diluted with 0.1 M phosphate buffer (pH 8.0) to prepare working solutions.
For the assay, 20 µL of compound solution was added to 140 µL of 0.1 M phosphate buffer (pH 8.0) in each well, followed by 20 µL of enzyme solution (AChE or BuChE, 100 U/L). After incubation at room temperature for 10 min, the reaction was initiated by adding 10 µL of DTNB (0.01 M) and 10 µL of substrate (ATCh or BTCh, 0.015 M). […] The percentage inhibition of enzyme activity was calculated using the following equation:(1) % Inhibition=Absorbance of control−Apsorbance of sample/Absorbance of control×100 where the absorbance of the control represents the maximum enzyme activity (without inhibition), and the absorbance of the sample corresponds to the enzyme activity in the presence of the tested compound. Appropriate blanks were included to account for background absorbance and to correct for any intrinsic color of the tested compounds.
All experiments were performed in triplicate.

[2] = target: T2, AChE from Electrophorus electricus (eeAChE) (Electrophorus electricus, UniProt O42275); assay: biochemical; settings: for inhibition at 20 µM: read-out: AChE % of Inhibition (Conc. 20 μM); for IC50: average ± standard error (n = 3)
T2 construct: purchased Sigma-Aldrich (St. Louis, MO, USA)
T2 sequence (O42275 24-633): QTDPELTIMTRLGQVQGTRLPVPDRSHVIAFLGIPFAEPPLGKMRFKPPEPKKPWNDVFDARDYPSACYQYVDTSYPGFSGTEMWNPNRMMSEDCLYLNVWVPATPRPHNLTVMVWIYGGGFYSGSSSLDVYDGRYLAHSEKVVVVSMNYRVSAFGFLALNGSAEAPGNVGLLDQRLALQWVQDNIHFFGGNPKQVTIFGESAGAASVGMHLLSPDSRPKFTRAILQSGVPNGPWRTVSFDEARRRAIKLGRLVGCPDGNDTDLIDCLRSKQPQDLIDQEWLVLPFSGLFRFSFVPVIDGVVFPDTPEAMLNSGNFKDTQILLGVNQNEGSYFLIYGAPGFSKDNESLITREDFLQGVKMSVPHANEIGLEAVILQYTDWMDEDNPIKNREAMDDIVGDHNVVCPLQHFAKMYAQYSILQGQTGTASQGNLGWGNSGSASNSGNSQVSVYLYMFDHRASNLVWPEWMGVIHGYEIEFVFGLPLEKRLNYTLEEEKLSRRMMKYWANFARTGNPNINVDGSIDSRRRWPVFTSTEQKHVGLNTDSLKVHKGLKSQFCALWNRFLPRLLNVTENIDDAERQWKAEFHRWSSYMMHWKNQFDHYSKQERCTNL

[3] = test system: Staphylococcus aureus ATCC 25923; assay: Agar well diffusion, S. aureus; assay type: cell-based; settings: for Antibacterial activity in words: agar well diffusion, particularly S. aureus; for zone of inhibition at 1000 µg/mL: Staphylococcus aureus
Protocol: (§1) The antimicrobial potential of the synthesized coumarin–triazole–isatin hybrids was evaluated by the agar well diffusion method. The activity was tested against a variety of Gram-positive bacteria (Staphylococcus aureus ATCC 25923 and ATCC 902710, Staphylococcus epidermidis ATCC 12228, Streptococcus pyogenes ATCC 19615, Enterococcus faecalis ATCC 51299), Gram-negative bacteria (Escherichia coli ATCC 25922, Haemophilus influenzae ATCC 49766, Pseudomonas aeruginosa ATCC 27853, Salmonella typhi ATCC 14028, Neisseria meningitidis ATCC 13090, Neisseria gonorrhoeae ATCC 43069), and fungi (Candida albicans ATCC 60193 and ATCC 90028, Candida orientalis ATCC 6258). All microbial strains were obtained from Microbiologics (St.Cloud, MN, USA).
(§2) The test compounds were dissolved in DMSO to obtain stock solutions (1 mg/mL). Each compound (60 µL) was transferred into wells (6 mm in diameter) that were previously perforated into agar plates inoculated with microbial suspensions standardized to 0.5 McFarland for bacteria and 2 McFarland for Candida spp. DMSO was used as a negative control, while commercial antibiotic disks of novobiocin (5 μg), ampicillin (10 μg), and ciprofloxacin (5 μg) served as positive controls. Antimicrobial activity was assessed by measuring the diameter of zones of inhibition (ZOIs) in millimeters. All tests were conducted in triplicate.

[4] = test system: Staphylococcus epidermidis ATCC 12228; assay: Agar well diffusion, S. epidermidis; assay type: cell-based; settings: ATCC12228, read-out: Staphylococcus epidermidis ATCC 12228 ZOI, 60 µL of 1 mg/mL per well, ZOI including the well (6 mm), ± SD, n = 3, ciprofloxacin disk 5 μg
Protocol: as §1, §2

S. aureus ATCC 25923 = assay: MIC by agar dilution, S. aureus; assay type: cell-based; settings: Staphylococcus aureus, ATCC25923, 0.39–200 μg/mL, read-out: MIC against S. aureus
[5] = test system: S. epidermidis ATCC 12228; assay: MIC by agar dilution, S. epidermidis; assay type: cell-based; settings: Staphylococcus epidermidis, ATCC12228, 0.39–200 μg/mL, read-out: MIC against S. epidermidis
BChE = target: T3, BChE (Equus caballus, UniProt P81908); assay: Type of enzyme inhibition, Lineweaver–Burk plot; assay type: biochemical, equine
T3 construct: BChE from equine serum (BChE, EC 3.1.1.8); purchased Sigma-Aldrich (St. Louis, MO, USA); host or cells: equine serum
T3 sequence (P81908 whole entry): as the sequence (P81908 whole entry) above
Protocol: The concentrations of substrate and inhibitor used in the assay are given in Section 3.3.1.
The type of enzyme inhibition was assessed using Lineweaver–Burk plots, which represent a linear transformation of the Michaelis–Menten equation. This method enables visual classification of inhibition type by plotting the reciprocal of the initial reaction velocity (1/Vo) against the reciprocal of the substrate concentration (1/[S]).
The intersection pattern of the fitted lines was used to identify the inhibition mechanism. All tests were replicated three times.

[6] = ATCC25923, 60 µL of 1 mg/mL per well, ZOI including the well (6 mm), ± SD, n = 3, ciprofloxacin disk 5 μg, read-out: Staphylococcus aureus ATCC 25923 ZOI

| SMILES | IC50 [1] | inhibition at 20 µM [1] | inhibition at 20 µM [2] | Antibacterial activity in words [3] | zone of inhibition at 1000 µg/mL [4] | Staphylococcus aureus ATCC 25923 ZOI ([3]; 60 µL of 1 mg/mL per well, ZOI including the well (6 mm), ± SD, n = 3, ciprofloxacin disk 5 μg) | zone of inhibition at 1000 µg/mL [3, 6] | MIC (S. aureus ATCC 25923) | MIC [5] | Selectivity BChE/AChE [1] | IC50 [2] | α value (affinity constant) (BChE; from Lineweaver–Burk plot) | Type of inhibition (BChE; substrate 1–8 mM, inhibitor 4, 8, 12 μM) | zone of inhibition at 1000 µg/mL ([3]; ATCC25923, read-out: Staphylococcus aureus ATCC 25923 ZOI, 60 µL of 1 mg/mL per well, ZOI including the well (6 mm), ± SD, n = 3, ciprofloxacin disk 5 μg) |
| --- | --- | --- | --- | --- | --- | --- | --- | --- | --- | --- | --- | --- | --- | --- |
| O=C1C(=O)N(Cc2cn(CCOc3cc(=O)oc4ccccc34)nn2)c2ccc(F)cc21 [Compound 6a2, 5-fluoro-1-((1-(2-((2-oxo-2H-chromen-4-yl)oxy)ethyl)-1H-1,2,3-triazol-4-yl)methyl)indoline-2,3-dione] | 9.16 ± 1.69 µM | 66.2 ± 5.18% | 11.8 ± 1.18% | failed to exhibit significant activity | 9.16 ± 1.69 mm |  |  |  |  |  |  |  |  |  |
| O=C(O)c1cn(C2CC2)c2cc(N3CCNCC3)c(F)cc2c1=O [Ciprofloxacine, ciprofloxacin, reference compound] |  |  |  |  | 5.24 ± 1.16 mm | 27.00 ± 1.62 mm | 27 mm | 0.78 µg/mL (≈ 2.35 µM) | 0.78 µg/mL (≈ 2.35 µM) |  |  |  |  |  |
| O=C1C(=O)N(Cc2cn(CCCCOc3cc(=O)oc4ccccc34)nn2)c2ccccc21 [Compound 6c1, 1-((1-(4-((2-oxo-2H-chromen-4-yl)oxy)butyl)-1H-1,2,3-triazol-4-yl)methyl)indoline-2,3-dione] | 1.74 ± 0.29 µM | 84.5 ± 8.46% | 67.1 ± 3.27% | only weak antibacterial activity | 1.74 ± 0.29 mm |  | 8.67 ± 1.15 mm |  |  | 8.78 | 15.3 ± 1.22 µM | greater than 1 | mixed-type inhibition |  |
| O=C1C(=O)N(Cc2cn(CCOc3cc(=O)oc4ccccc34)nn2)c2ccc(Br)cc21 [Compound 6a4, 5-bromo-1-((1-(2-((2-oxo-2H-chromen-4-yl)oxy)ethyl)-1H-1,2,3-triazol-4-yl)methyl)indoline-2,3-dione] |  | 22.7 ± 3.87% | 4.57 ± 0.87% | showed activity |  |  | 12 to 20 mm | 12.5 µg/mL (≈ 25.2 µM) |  |  |  |  |  |  |
| O=C1C(=O)N(Cc2cn(CCCOc3cc(=O)oc4ccccc34)nn2)c2ccc(Br)cc21 [Compound 6b4, 5-bromo-1-((1-(3-((2-oxo-2H-chromen-4-yl)oxy)propyl)-1H-1,2,3-triazol-4-yl)methyl)indoline-2,3-dione] | 13.3 ± 2.19 µM | 66.2 ± 8.11% | 22.9 ± 2.11% | moderate antibacterial effects | 14 mm |  |  | 6.25 µg/mL (≈ 12.3 µM) | 25 µg/mL (≈ 49.1 µM) |  |  |  |  | 20 mm |
| O=C1C(=O)N(Cc2cn(CCOc3cc(=O)oc4ccccc34)nn2)c2ccccc21 [Compound 6a1, 1-((1-(2-((2-oxo-2H-chromen-4-yl)oxy)ethyl)-1H-1,2,3-triazol-4-yl)methyl)indoline-2,3-dione] | 6.08 ± 1.19 µM | 72.8 ± 2.17% | 29.3 ± 2.14% | failed to exhibit significant activity | 6.08 ± 1.19 mm |  |  |  |  |  |  |  |  |  |
| O=C1C(=O)N(Cc2cn(CCCOc3cc(=O)oc4ccccc34)nn2)c2ccc(F)cc21 [Compound 6b2, 5-fluoro-1-((1-(3-((2-oxo-2H-chromen-4-yl)oxy)propyl)-1H-1,2,3-triazol-4-yl)methyl)indoline-2,3-dione] | 5.9 ± 1.09 µM | 75.5 ± 5.69% | 44.3 ± 5.69% | only modest antibacterial effect | 5.9 ± 1.09 mm |  | 9.33 ± 4.04 mm |  |  |  |  |  |  |  |
| O=C1C(=O)N(Cc2cn(CCCOc3cc(=O)oc4ccccc34)nn2)c2ccccc21 [Compound 6b1, 1-((1-(3-((2-oxo-2H-chromen-4-yl)oxy)propyl)-1H-1,2,3-triazol-4-yl)methyl)indoline-2,3-dione] | 8.52 ± 1.28 µM | 69.2 ± 5.27% | 69.2 ± 4.27% |  | 8.52 ± 1.28 mm |  |  |  |  | 2.13 | 18.2 ± 1.19 µM |  |  |  |
| O=C1C(=O)N(Cc2cn(CCOc3cc(=O)oc4ccccc34)nn2)c2ccc(Cl)cc21 [Compound 6a3, 5-chloro-1-((1-(2-((2-oxo-2H-chromen-4-yl)oxy)ethyl)-1H-1,2,3-triazol-4-yl)methyl)indoline-2,3-dione] | 10.6 ± 1.13 µM | 62.6 ± 6.19% | 5.57 ± 1.19% |  | 10.6 ± 1.13 mm |  |  |  |  |  |  |  |  |  |
| O=C1C(=O)N(Cc2cn(CCCCOc3cc(=O)oc4ccccc34)nn2)c2ccc(F)cc21 [Compound 6c2, 5-fluoro-1-((1-(4-((2-oxo-2H-chromen-4-yl)oxy)butyl)-1H-1,2,3-triazol-4-yl)methyl)indoline-2,3-dione] | 5.51 ± 1.38 µM | 79.1 ± 5.49% | 61 ± 3.49% | only weak antibacterial activity | 5.51 ± 1.38 mm |  | 12 ± 2.65 mm |  |  | 3.11 | 17.1 ± 1.65 µM |  |  |  |
| O=C1C(=O)N(Cc2cn(CCCOc3cc(=O)oc4ccccc34)nn2)c2ccc(Cl)cc21 [Compound 6b3, 5-chloro-1-((1-(3-((2-oxo-2H-chromen-4-yl)oxy)propyl)-1H-1,2,3-triazol-4-yl)methyl)indoline-2,3-dione] | 11.3 ± 1.16 µM | 61.6 ± 7.24% | 31.5 ± 3.24% | only modest antibacterial effect | 11.2 ± 1.16 mm |  | 10.3 ± 1.15 mm |  |  |  |  |  |  |  |
| O=C1C(=O)N(Cc2cn(CCCCOc3cc(=O)oc4ccccc34)nn2)c2ccc(Cl)cc21 [Compound 6c3, 5-chloro-1-((1-(4-((2-oxo-2H-chromen-4-yl)oxy)butyl)-1H-1,2,3-triazol-4-yl)methyl)indoline-2,3-dione] |  | 5.19 ± 1.14% | 44.2 ± 3.14% | only weak antibacterial activity |  |  | 10.7 ± 3.06 mm |  |  |  |  |  |  |  |
| O=C1C(=O)N(Cc2cn(CCCOc3cc(=O)oc4ccccc34)nn2)c2ccc(I)cc21 [Compound 6b5, 5-iodo-1-((1-(3-((2-oxo-2H-chromen-4-yl)oxy)propyl)-1H-1,2,3-triazol-4-yl)methyl)indoline-2,3-dione] | 14.8 ± 1.44 µM | 61.6 ± 7.49% | 27.6 ± 1.49% | largely inactive | 14.8 ± 1.44 mm |  |  |  |  |  |  |  |  |  |
